Measured values published in PMC7903134, “Human glucocerebrosidase mediates formation of xylosyl-cholesterol by β-xylosidase and transxylosidase reactions” (Journal of Lipid Research, 2021).

Columns and labels:
GBA3 = molecular target: T1, GBA3 (Homo sapiens, UniProt Q9H227); test: hydrolysis and transxylosylation in lysates of GBA3-overexpressing HEK293 cells; type: cell-based
T1 construct: GBA3 overexpressed in HEK293 cells, lysate
T1 sequence (Q9H227 1-469): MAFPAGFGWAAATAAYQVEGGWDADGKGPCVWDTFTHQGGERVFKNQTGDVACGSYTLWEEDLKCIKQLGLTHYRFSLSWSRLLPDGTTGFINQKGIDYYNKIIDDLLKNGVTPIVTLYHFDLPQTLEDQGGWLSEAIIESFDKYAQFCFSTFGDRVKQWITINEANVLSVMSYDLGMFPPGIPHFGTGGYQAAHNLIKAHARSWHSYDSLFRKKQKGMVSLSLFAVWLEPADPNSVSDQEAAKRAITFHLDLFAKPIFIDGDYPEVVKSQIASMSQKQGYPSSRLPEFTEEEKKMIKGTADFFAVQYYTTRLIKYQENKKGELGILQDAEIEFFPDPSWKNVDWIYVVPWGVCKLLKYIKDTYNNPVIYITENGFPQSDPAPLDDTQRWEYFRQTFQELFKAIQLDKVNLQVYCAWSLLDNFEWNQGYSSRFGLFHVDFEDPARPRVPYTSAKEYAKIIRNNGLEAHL

glucocerebrosidase (GBA) = molecular target: T2, glucocerebrosidase (GBA) (Mus musculus, UniProt P17439); test: irreversible GBA inhibition in RAW264.[…] cells ([…]); xylosylated cholesterol by LC-MS/MS; type: cell-based
T2 construct: gene Gba1; endogenous GBA in RAW264.7 cells
T2 sequence (P17439 20-515): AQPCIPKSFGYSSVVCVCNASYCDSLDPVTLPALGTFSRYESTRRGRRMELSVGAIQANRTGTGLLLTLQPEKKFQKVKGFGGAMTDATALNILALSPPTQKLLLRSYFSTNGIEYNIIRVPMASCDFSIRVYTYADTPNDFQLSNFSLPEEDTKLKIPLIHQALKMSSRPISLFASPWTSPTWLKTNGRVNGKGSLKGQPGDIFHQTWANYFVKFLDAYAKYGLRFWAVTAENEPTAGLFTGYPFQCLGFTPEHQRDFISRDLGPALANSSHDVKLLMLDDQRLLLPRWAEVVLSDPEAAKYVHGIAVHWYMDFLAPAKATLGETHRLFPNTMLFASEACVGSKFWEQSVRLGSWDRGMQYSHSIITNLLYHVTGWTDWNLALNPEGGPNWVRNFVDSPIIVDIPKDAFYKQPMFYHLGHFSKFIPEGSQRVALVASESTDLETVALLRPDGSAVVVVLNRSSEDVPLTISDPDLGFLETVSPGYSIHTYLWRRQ

[1] = molecular target: T3, glucosylceramide synthase (GCS) (Homo sapiens, UniProt Q16739); test: XylCer formation in lysates of HeLa, GCS KO and GCS-reexpressing cells, LC-MS/MS; type: cell-based
T3 construct: gene UGCG; GCS overexpressed in HeLa GCS KO cells, lysate
T3 sequence (Q16739 1-394): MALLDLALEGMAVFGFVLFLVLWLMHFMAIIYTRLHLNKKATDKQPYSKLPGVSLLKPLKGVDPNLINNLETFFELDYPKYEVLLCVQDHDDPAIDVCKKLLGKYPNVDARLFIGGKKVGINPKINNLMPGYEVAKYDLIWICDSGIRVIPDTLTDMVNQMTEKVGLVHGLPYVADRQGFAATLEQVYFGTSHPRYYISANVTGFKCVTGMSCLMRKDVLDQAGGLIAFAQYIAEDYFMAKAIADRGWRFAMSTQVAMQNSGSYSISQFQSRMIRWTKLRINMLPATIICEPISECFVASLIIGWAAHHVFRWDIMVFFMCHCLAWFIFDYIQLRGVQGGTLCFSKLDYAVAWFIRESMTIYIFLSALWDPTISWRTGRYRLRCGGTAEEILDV
Excerpt: formation in lysates of HeLa, GCS KO and GCS-reexpressing cells, LC-MS/MS on glucosylceramide synthase (GCS) | Expression of GCS in the GCS KO cells reinstalled their ability to produce […]

[2] = molecular target: T4, glucocerebrosidase (GBA), recombinant human (rhGBA, Cerezyme) (Homo sapiens, UniProt P04062); test: fluorogenic 4-MU-β-Xyl ([…]) and 4-MU-β-Glc ([…]) hydrolysis after […] min preincubation; type: biochemical
T4 construct: gene GBA1
T4 sequence (P04062 40-536): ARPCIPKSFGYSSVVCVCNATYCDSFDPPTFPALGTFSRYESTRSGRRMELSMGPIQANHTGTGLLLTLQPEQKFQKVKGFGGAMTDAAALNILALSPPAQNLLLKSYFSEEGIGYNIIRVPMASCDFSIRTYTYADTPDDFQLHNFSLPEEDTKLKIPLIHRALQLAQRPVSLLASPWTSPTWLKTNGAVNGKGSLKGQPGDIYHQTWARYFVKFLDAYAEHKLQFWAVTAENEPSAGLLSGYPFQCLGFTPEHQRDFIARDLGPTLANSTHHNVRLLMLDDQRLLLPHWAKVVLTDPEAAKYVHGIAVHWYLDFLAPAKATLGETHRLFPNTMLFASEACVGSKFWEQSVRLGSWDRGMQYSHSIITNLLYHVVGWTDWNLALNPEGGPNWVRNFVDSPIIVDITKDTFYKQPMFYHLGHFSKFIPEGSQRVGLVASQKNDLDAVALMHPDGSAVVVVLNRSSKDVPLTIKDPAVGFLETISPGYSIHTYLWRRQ

[3] = molecular target: T4, glucocerebrosidase (GBA), recombinant human (rhGBA, Cerezyme); test: transxylosylation/transglucosylation acceptor, LC-MS/MS of products; type: biochemical

Compound: Cc1cc(=O)oc2cc(O[C@@H]3OC[C@@H](O)[C@H](O)[C@H]3O)ccc12 [4-methylumbelliferyl β-D-xyloside]
- hydrolysis and transxylosylation in lysates of GBA3-overexpressing HEK293 cells (GBA3): GBA3, albeit less prominent than GBA, was found to be able to hydrolyze 4-MU-β-Xyl

Compound: O[C@H]1[C@H](O)[C@@H](O)[C@@H]2O[C@@H]2[C@@H]1O [conduritol B-epoxide, L-1,2-anhydro-myo-inositol]
- irreversible GBA inhibition in RAW264.7 cells (300 μM); xylosylated cholesterol (glucocerebrosidase (GBA)): formation was prohibited by prior inhibition of GBA with CBE

Compound: O=c1ccn([C@@H]2O[C@H](COP(=O)(O)OP(=O)(O)O[C@H]3OC[C@@H](O)[C@H](O)[C@H]3O)[C@@H](O)[C@H]2O)c(=O)[nH]1 [UDP-Xyl]
- XylCer formation in lysates of HeLa, GCS KO and GCS-reexpressing cells, LC-MS/MS [1]: Expression of GCS in the GCS KO cells reinstalled their ability to produce XylCer

Compound: OC[C@@H]1[C@@H](O)[C@H](O)[C@@H](O)[C@@H]2O[C@H]12 [cyclophellitol]
- IC50 [2]: 61 nM

Compound: CC(C)CCC[C@@H](C)[C@H]1CC[C@H]2[C@@H]3CC=C4C[C@@H](O)CC[C@]4(C)[C@H]3CC[C@]12C [cholesterol]
- transxylosylation/transglucosylation acceptor, LC-MS/MS of products [3]: we used natural cholesterol as the acceptor and 4-MU-β-Xyl as the donor
